The values that follow come from patent publication EP4786487A1, “PEPTIDE” (Peptidream Inc, priority 2023, dated 2025).

Holding throughout (assay type): cell-based
The target of test [1] is T1, Myostatin (Homo sapiens, UniProt O14793).
T1 construct: active myostatin (also called mature myostatin) is a homodimer consisting of two C-terminal growth factor domains; purchased R&D systems 788-G8/CF
T1 sequence (O14793 267-375): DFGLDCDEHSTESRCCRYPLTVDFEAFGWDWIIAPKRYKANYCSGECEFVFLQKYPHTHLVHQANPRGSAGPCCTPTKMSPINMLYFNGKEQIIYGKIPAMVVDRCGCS
The test can be described thus: Reporter gene assay for myostatin signaling in HepG2 cell line, Evaluation Procedure (1), myostatin inhibition. The following applies: Method A: Myostatin 10 ng/mL; read-out: IC50 (Luciferase) Myostatin HepG2. Put shortly:
(§1)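 HepG2 cells transfected with pGL3(CAGA)12-luciferase reporter, serum-starved in 0.1% BSA medium, then stimulated with myostatin or GDF-11 plus 4-fold peptide dilutions (0.006–100 nmol/L for myostatin, 0.12–2000 nmol/L for GDF-11) for 20–24 h at 37 °C. Luminescence read with One-Glo; IC50 calculated.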
On the technique in general: In a reporter assay the amount or activity of a reporter protein is the signal.

Test [2] has as its system Myostatin. The description is as above. The following applies: Method A; GDF-11 IC50 versus Myostatin IC50. Put shortly:
as §1

Test [3] deals with T1, Myostatin. The test can be described thus: Reporter gene assay for myostatin signaling in HEK-Blue TGF-β Cells, myostatin. Particulars: myostatin 3 ng/mL. The procedure: (§2) In this Example, the in vitro activity of the peptide Myostatin_99_v145 (SEQ ID NO: 30) was evaluated using a reporter gene assay for myostatin signaling.
(§3) HEK-Blue (trademark) TGF-β Cells (hkb-tgfbv2, InvivoGen) were cultured in DMEM High glucose GlutaMAX (10569010, Thermo) containing 10% FBS (Heat-inactivated FBS QUALIFIED, 10270-106, Gibco), […] Normocin (ant-nr-05, InvivoGen), […] Zeocin (ant-zn-05, InvivoGen), and 50 µg/mL Gentamicin (11980-14, Nacalai Tesque). The cultured HEK-Blue (trademark) TGF-β Cells were suspended in an assay medium containing DMEM High glucose GlutaMAX, 50 µg/mL Gentamicin, and 1% bovine serum albumin (A7030, Sigma). The cells were seeded at 4 × 10^4 cells/well onto a 96-well plate (356461, Corning), namely BioCoat poly-D-lysine multi-well plate, and allowed to stand for 30 min.
(§4) A 4-fold dilution series of the peptide, namely Myostatin_99_v145 (SEQ ID NO: 30), synthesized according to Example 1, the final concentration of which was from 0.006 nmol/L up to a maximum concentration of 0.1 µmol/L for the myostatin inhibitory activity test, was added to a 96-well U-bottom Non-Binding MicroPlate (650901, Greiner). For the GDF-11 or activin A inhibitory activity test, a 4-fold dilution series, the final concentration of which was from 0.12 nmol/L to a maximum concentration of 2 µmol/L, was added to a 96-well U-bottom Non-Binding MicroPlate (650901, Greiner).
(§5) Subsequently, myostatin (788-G8/CF, R&D systems), GDF-11 (1958-GD-G8/CF, R&D systems), or activin A (338-AC-010/CF, R&D systems) was each added at a final concentration of 3 ng/mL. The plate was sealed with Parafilm, and incubated in a CO2 incubator (37°C, 5% CO2) for 30 min. The samples were added at 50 µL/well to a plate containing HEK-Blue (trademark) TGF-β Cells, and incubated in a CO2 incubator (37°C, 5% CO2) for 24 hours.
(§6) To each well of a UV-Star µClear 96-well (655801, Greiner), 180 µL of Detection buffer (prepared by diluting, with 17.64 mL of distilled water, 180 µL of QUANTI-Blue buffer and 180 µL of QUANTI-Blue solution) was dispensed. Here, 20 µL of the supernatant of the culture medium was transferred to the above Detection buffer and stirred with a shaker for 1 min. The plate was covered and incubated in a CO2 incubator for 3 to 5 hours, and absorbance was measured (Envision 2104, PerkinElmer, 620 nm/bp 40 nm). Based on the absorbance, IC50 values of the peptide were calculated using software (Prism 9, GraphPad).

For test [4], the system named is Myostatin. Described as above. Here is the method: as §2, §3, §4, §5, §6
For a further test, the target named is T2, activin A (Homo sapiens, UniProt P08476).
T2 construct: purchased R&D systems 338-AC-010/CF
T2 sequence (P08476 311-426): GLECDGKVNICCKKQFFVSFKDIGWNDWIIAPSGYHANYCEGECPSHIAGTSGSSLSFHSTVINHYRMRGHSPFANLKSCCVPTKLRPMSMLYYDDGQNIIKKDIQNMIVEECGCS
In words: Reporter gene assay for myostatin signaling in HEK-Blue TGF-β Cells, activin A. The following applies: activin A 3 ng/mL. Here is the method: as §2
as §3, with “min. […]” for “min.”
To each well of a UV-Star µClear 96-well (655801, Greiner), 180 µL of Detection buffer (prepared by diluting, with 17.64 mL of distilled water, 180 µL of QUANTI-Blue buffer and 180 µL of QUANTI-Blue solution) was dispensed. […] The plate was covered and incubated in a CO2 incubator for 3 to 5 hours, and absorbance was measured (Envision 2104, PerkinElmer, 620 nm/bp 40 nm). Based on the absorbance, IC50 values of the peptide were calculated using software (Prism 9, GraphPad).

pIC50: −log10 of the molar value. Starred links: 1 amine or outer side, 2 acyl side, 3 side chain; linkers in the order of their positions; H or OH if unused. Positions of bridges follow the written chain, without caps; N, C: chain ends. Non-standard residues stand in square brackets, D forms with d. Residues, ends and D or L forms follow the SMILES beside them. Phe(3-OCH2COOH) = N[C@@H](Cc1cccc(OCC(=O)O)c1)C(=O)O; Phe(4-COOH) = N[C@@H](Cc1ccc(C(=O)O)cc1)C(=O)O; Gly(N(CH2)3COOH) = O=C(O)CCCNCC(=O)O; X1 = CCCCCCC[C@H](N[*:1])C(=O)[*:2]; NMeF = CN[C@@H](Cc1ccccc1)C(=O)O; NMeA = CN[C@@H](C)C(=O)O Some results are limits rather than exact numbers.

On to `CCCCCCC[C@@H]1NC(=O)[C@H](Cc2ccccc2)N(C)C(=O)[C@H](CCCNC(=N)N)NC(=O)[C@H](Cc2ccc(C(=O)O)cc2)NC(=O)[C@H](Cc2cccc(OCC(=O)O)c2)NC(=O)[C@H](C)N(C)C(=O)[C@H]([C@@H](C)CC)NC(=O)[C@H](Cc2ccccc2)N(C)C(=O)[C@H](Cc2ccc(O)cc2)NC(=O)[C@H](Cc2c[nH]c3ccccc23)NC(=O)[C@H](C)NC(=O)CN(CCCC(=O)O)C(=O)CSC[C@H](C(=O)O)NC(=O)[C@H](Cc2ccccc2)N(C)C(=O)[C@H](C)N(C)C1=O` [Myostatin_99_v145] ({CH2CO}-[Gly(N(CH2)3COOH)]AWY[NMeF]I[NMeA][Phe(3-OCH2COOH)][Phe(4-COOH)]R[NMeF][X1][NMeA][NMeF][dC]-OH; thioether N-15), for which the pIC50 was 8.80 at Myostatin [1], 9.64 on Myostatin [3] (read-out: IC50 (nmol/L) Myostatin) and below 4.70 at activin A (read-out: IC50 (nmol/L) Activin A). This compound had a Selectivity in the test with Myostatin [2] of 259. The figures for the IC90 at Myostatin [3] (read-out: IC90 (nmol/L) Myostatin) and at activin A (read-out: IC90 (nmol/L) Activin A) were 0.64 nmol/L and above 20000 nmol/L, respectively. For the same compound, the “Selectivity (GDF11/myostatin)” value in the test with Myostatin [4] (from IC50) is on record as 270; in the test with Myostatin [4] (from IC90), 1,088.
